Data: patent publication US20200010482A1, “INHIBITORS OF BETA SECRETASE” (Janssen Pharmaceutica NV, priority 2017, published 2020)

Legend:
[1] = test system: Abeta total produced and secreted by SKNBE2 cells expressing hAPP695; test: Cellular αLisa assay in SKNBE2 cells, Abeta total; assay type: cell-based, human; conditions: SKNBE2 cells expressing hAPP695, 18 hours incubation; for IC50: Homo sapiens, SKNBE2, 18 h, read-out: CELLULAR αLISA ASSAY IN SKNBE2 CELLS ABETA TOTAL pIC50 (converted)
Protocol: (§1) In two αLisa assays the levels of Abeta total and Abeta 1-42 produced and secreted into the medium of human neuroblastoma SKNBE2 cells are quantified. The assay is based on the human neuroblastoma SKNBE2 expressing the wild type Amyloid Precursor Protein (hAPP695). The compounds are diluted and added to these cells, incubated for 18 hours and then measurements of Abeta 1-42 and Abeta total are taken. Abeta total and Abeta 1-42 are measured by sandwich αLisa. αLisa is a sandwich assay using biotinylated antibody AbN/25 attached to streptavidin coated beads and antibody Ab4G8 or cAb42/26 conjugated acceptor beads for the detection of Abeta total and Abeta 1-42 respectively. In the presence of Abeta total or Abeta 1-42, the beads come into close proximity. The excitation of the donor beads provokes the release of singlet oxygen molecules that trigger a cascade of energy transfer in the acceptor beads, resulting in light emission. Light emission is measured after 1 hour incubation (excitation at […] and emission at 615 nm).
(§2) A best-fit curve is fitted by a minimum sum of squares method to the plot of % Controlmin versus compound concentration. From this an IC50 value (inhibitory concentration causing 50% inhibition of activity) can be obtained. • LC=Median of the low control values=Low control: cells preincubated without compound, without biotinylated Ab in the αLisa • HC=Median of the High control values=High Control: cells preincubated without compound
(§3) % Effect=100−[(sample−LC)/(HC−LC)*100]
(§4) % Control=(sample/HC)*100
(§5) % Controlmin=(sample−LC)/(HC−LC)*100

[2] = target: T1, BACE2 (Homo sapiens, UniProt Q9Y5Z0); test: BACE2 biochemical FRET based assay; conditions: recombinant BACE2 0.4 μg/ml, 10 μM substrate, 450 min, pH 5.0; for IC50: read-out: BIOCHEMICAL FRET BASED ASSAY pIC50 (converted)
T1 construct: recombinant BACE2 protein in a final concentration of 0.4 μg/ml
T1 sequence (Q9Y5Z0 63-518): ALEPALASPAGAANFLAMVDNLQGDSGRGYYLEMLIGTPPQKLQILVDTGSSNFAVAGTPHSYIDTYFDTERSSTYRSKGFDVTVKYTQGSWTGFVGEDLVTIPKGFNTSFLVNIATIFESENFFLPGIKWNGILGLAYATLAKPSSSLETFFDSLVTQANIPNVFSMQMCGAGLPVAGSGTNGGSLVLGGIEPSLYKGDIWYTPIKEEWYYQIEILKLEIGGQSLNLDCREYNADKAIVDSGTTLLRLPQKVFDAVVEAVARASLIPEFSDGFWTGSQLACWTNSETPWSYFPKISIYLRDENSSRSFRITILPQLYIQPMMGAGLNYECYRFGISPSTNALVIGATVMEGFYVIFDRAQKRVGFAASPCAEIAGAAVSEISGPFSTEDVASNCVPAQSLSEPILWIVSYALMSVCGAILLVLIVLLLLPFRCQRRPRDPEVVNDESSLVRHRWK
Excerpt: (§6) This assay is a Fluorescence Resonance Energy Transfer Assay (FRET) based assay. The substrate for this assay contains the ‘Swedish’ Lys-Met/Asn-Leu mutation of the amyloid precursor protein (APP) beta-secretase cleavage site. This substrate also contains two fluorophores: (7-methoxycoumarin-4-yl) acetic acid (Mca) is a fluorescent donor with excitation wavelength at 320 nm and emission at 405 nm and 2,4-Dinitrophenyl (Dnp) is a proprietary quencher acceptor. […] Upon cleavage by the beta-secretase, the fluorophore Mca is separated from the quenching group Dnp, restoring the full fluorescence yield of the donor. The increase in fluorescence is linearly related to the rate of proteolysis.
Briefly in a 384-well format recombinant BACE2 protein in a final concentration of 0.4 μg/ml is incubated for 450 minutes at room temperature with 10 μM substrate in incubation buffer (50 mM Citrate buffer pH 5.0, 0.05% PEG, no DMSO) in the absence or presence of compound. Next the amount of proteolysis is directly measured by fluorescence measurement at T=0 and T=450 (excitation at 320 nm and emission at 405 nm). Results are expressed in RFU (Relative Fluorescence Units), as difference between T450 and TO.
(§7) A best-fit curve is fitted by a minimum sum of squares method to the plot of % Controlmin versus compound concentration. From this an IC50 value (inhibitory concentration causing 50% inhibition of activity) can be obtained. • LC=Median of the low control values=Low control: Reaction without enzyme • HC=Median of the High control values=High Control: Reaction with enzyme
as §3, §4, §5

[3] = test system: Abeta 1-42 produced and secreted by SKNBE2 cells expressing hAPP695; test: Cellular αLisa assay in SKNBE2 cells, Abeta 1-42; assay type: cell-based, human; conditions: SKNBE2 cells expressing hAPP695, 18 hours incubation; for IC50: Homo sapiens, SKNBE2, 18 h, read-out: CELLULAR αLISA ASSAY IN SKNBE2 CELLS ABETA 42 PIC50 (converted)
Protocol: as §1, §2, §3, §4, §5

[4] = target: T2, BACE1 (Homo sapiens, UniProt P56817); test: BACE1 biochemical FRET based assay; conditions: recombinant BACE1 0.04 μg/ml, 20 μM substrate, 450 min, pH 5.0; for IC50: read-out: BIOCHEMICAL FRET BASED ASSAY pIC50 (converted)
T2 construct: recombinant BACE1 protein in a final concentration of 0.04 μg/ml
T2 sequence (P56817 46-501): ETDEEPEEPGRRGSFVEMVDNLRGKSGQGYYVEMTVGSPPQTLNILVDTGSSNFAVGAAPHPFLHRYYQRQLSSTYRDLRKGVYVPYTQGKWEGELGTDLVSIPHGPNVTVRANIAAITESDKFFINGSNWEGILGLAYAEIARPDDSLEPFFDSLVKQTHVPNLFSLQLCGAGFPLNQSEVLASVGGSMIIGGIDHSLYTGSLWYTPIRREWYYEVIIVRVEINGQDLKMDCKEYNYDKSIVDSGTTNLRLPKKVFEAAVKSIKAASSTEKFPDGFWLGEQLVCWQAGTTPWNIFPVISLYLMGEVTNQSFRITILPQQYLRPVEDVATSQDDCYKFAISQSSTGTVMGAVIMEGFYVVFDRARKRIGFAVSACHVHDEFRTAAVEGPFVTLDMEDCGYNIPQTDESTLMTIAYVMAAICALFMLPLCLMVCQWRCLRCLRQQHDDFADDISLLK
Excerpt: as §6, with “this assay is an APP derived 13 amino acids peptide that contains the” for “this assay contains the”, “cleavage by BACE1, the fluorophore” for “cleavage by the beta-secretase, the fluorophore”
Briefly in a 384-well format recombinant BACE1 protein in a final concentration of 0.04 μg/ml is incubated for 450 minutes at room temperature with 20 μM substrate in incubation buffer (50 mM Citrate buffer pH 5.0, 0.05% PEG) in the presence of compound or DMSO. Next the amount of proteolysis is directly measured by fluorescence measurement (excitation at 320 nm and emission at 405 nm) at different incubation times (0, 30, 60, 90, 120 and 450 min). For every experiment a time curve (every 30 min between 0 min and 120 min) is used to determine the time where we find the lowest basal signal of the high control. The signal at this time (Tx) is used to subtract from the signal at 450 min. Results are expressed in RFU, as difference between T450 and Tx.
as §7, §3, §4, §5

CELLULAR αLISA ASSAY IN SKNBE2 CELLS ABETA TOTAL pIC50 [1] | BIOCHEMICAL FRET BASED ASSAY pIC50 [2] | BIOCHEMICAL FRET BASED ASSAY pIC50 [4] | IC50 [1] | IC50 [2] | IC50 [3] | IC50 [4] | Compound | CELLULAR αLISA ASSAY IN SKNBE2 CELLS ABETA 42 PIC50 [3]
7.62 | 7.55 | 7.6 | – | – | – | – | COc1ncc(Oc2ccccn2)c2c1C[C@]1(c3ccc(F)cc3F)N=C(N)SC[C@@H]1C2 [Compound 135] | 7.6
7.82 | 7.72 | 7.97 | – | – | – | – | COc1ncc(Br)c2c1C[C@]1(c3cc(Oc4ccccn4)ccc3F)N=C(N)SC[C@@H]1C2 [Compound 137] | 7.74
– | – | – | 1.32 µM | 6.17 µM | 1.29 µM | 4.79 µM | COc1nccc2c1C[C@@]1(c3ccc(F)cc3F)N=C(N)SC[C@H]1C2 [Compound 182] | –
– | – | – | 3.47 µM | 6.92 µM | 3.09 µM | 4.47 µM | COc1nccc2c1C[C@@]1(c3cc(O)ccc3F)N=C(N)SC[C@H]1C2 [Compound 183] | –
5.9 | <5 | 5.26 | – | – | – | – | COc1ncc(-c2cnccc2C)c2c1C[C@@]1(c3cc(-c4cncnc4)ccc3F)N=C(N)SC[C@H]1C2 [Compound 193] | 6.01
